The text below walks through data of ChEMBL document CHEMBL1156829 (Proc Natl Acad Sci U S A, 2008).

Data set [1] can be described thus: NOVARTIS: Cytotoxicity against human hepatocellular carcinoma cell line (Huh7). The conditions noted are these: Huh7 cells (hepatocellular carcinoma cell line). In kind it is toxicity, cell-based, Huh-7.
The subject of data set [2] is Plasmodium falciparum. The data set is described as follows: NOVARTIS: Inhibition of Plasmodium falciparum 3D7 (drug-susceptible) proliferation in erythrocyte-based infection assay. The data set is classed as functional, organism-based. The settings on record: Plasmodium falciparum, 3D7.
Data set [3] deals with Plasmodium falciparum. The data set is described as follows: NOVARTIS: Inhibition of Plasmodium falciparum W2 (drug-resistant) proliferation in erythrocyte-based infection assay. The data set is classed as functional, organism-based. The settings on record: Plasmodium falciparum, W2; read-out: EC50.

Bounds are passed on as bounds.

On to `Cc1cc(/C=C2\SC(=Nc3ccccc3)NC2=O)c(C)n1-c1cccc([N+](=O)[O-])c1`, for which the CC50 (commonly the concentration at which the toxic effect on the cells reaches its halfway point) in data set [1] was above 100000 nM. The EC50 (commonly the midpoint of the concentration-response curve) with Plasmodium falciparum [2] amounted to 682 nM; in the data set with Plasmodium falciparum [3] it was 897 nM.
The like results for `Fc1ccc2[nH]c3c(NCCN4CCCCC4)ncnc3c2c1` were, in that order, 23700 nM, 154 nM and 214 nM.
The corresponding values for `Cc1cc(C)cc(Nc2cc(C)nc3ncnn23)c1` are above 100000 nM, 1220 nM and 901 nM.
As for `CCCCCCCCCCCCCC(=O)Oc1ccccc1-c1nc2cc(C)ccn2c1NC(C)(C)CC(C)(C)C`, the CC50 in data set [1] was above 10000 nM. For the same compound, the values for the EC50 with Plasmodium falciparum [2] and in the data set with Plasmodium falciparum [3] were 1520 nM and 88.4 nM, respectively.
In data set [1], `CN(C)CCNC(=S)Nc1cccc(C(F)(F)F)c1` yielded a CC50 above 100000 nM. The results for the EC50 in the data set on Plasmodium falciparum [2] and in the data set with Plasmodium falciparum [3] were 4030 nM and 897 nM, respectively.
The corresponding values for `COc1cccc(-c2ccc(O)c(CN(C)CC(O)c3ccccc3)c2)n1` (centres undefined) are above 10000 nM, 246 nM and 90.4 nM.
The like results for `COc1cccc(OCC(=O)NN=C(C)CC(=O)NCc2ccco2)c1` were, in that order, above 100000 nM, above 12500 nM and 901 nM.
The like results for `C[n+]1oc(/C=C/c2ccccc2)cc1/C=C/c1ccccc1` were, in that order, above 10000 nM, 110 nM and 88.8 nM.
As for `CN(CCCNc1ccnc2cc(Cl)ccc12)C(=O)c1ccc(Cl)cc1`, the CC50 in data set [1] was above 8530 nM. Also, the concentration giving a half-maximal response (EC50) in the data set on Plasmodium falciparum [2] came out at 122 nM; in the data set with Plasmodium falciparum [3], 75.6 nM.
The like results for `O=C1c2ccccc2C(=O)c2c1ccc1nonc21` were, in that order, above 10000 nM, 121 nM and 88.6 nM.
In turn, `Nc1ccc(C(=O)Nc2ccc(-c3nc4ccccc4o3)cc2)cc1` showed a CC50 in data set [1] above 100000 nM. Besides, the EC50 worked out at 935 nM in the data set on Plasmodium falciparum [2] and 893 nM in the data set with Plasmodium falciparum [3].
The compound `COc1cc(Br)c(C2CC(=O)Nc3ccc4ccccc4c32)cc1OC` (centres undefined) yielded a CC50 in data set [1] of 34400 nM. Further, the EC50 amounted to 386 nM with Plasmodium falciparum [2] and 307 nM with Plasmodium falciparum [3].
The like results for `Cn1nccc1C(OCC(=O)N1CCOCC1)c1ccc(F)cc1` (centres undefined) were, in that order, above 10000 nM, 134 nM and 89.2 nM.
The corresponding values for `CN(C)c1cc[n+](CC(=O)Nc2ccc(Cl)cc2)cc1` are above 100000 nM, 549 nM and 897 nM.
The like results for `O=C(CCl)Nc1ccc(OC(F)F)cc1` were, in that order, 18100 nM, 317 nM and 162 nM.
Turning to `O=C(Nc1ccc(-n2cccn2)cc1)C1CCN(Cc2nc3c(s2)CCCC3)CC1`, in data set [1], the CC50 was above 100000 nM. In addition, the results for the EC50 in the data set on Plasmodium falciparum [2] and in the data set on Plasmodium falciparum [3] were 1350 nM and 894 nM, respectively.
The like results for `NNc1nc(NCc2ccccc2)nc(N2CCOCC2)n1` were, in that order, above 10000 nM, 71.8 nM and 89.4 nM.
In data set [1], `CCn1c(SCc2ccc(Cl)cc2Cl)nc2sc3c(c2c1=O)CCN(C)C3` came in with a CC50 above 100000 nM. Besides, the EC50 with Plasmodium falciparum [2] came out at 942 nM; in the data set with Plasmodium falciparum [3], 900 nM.
The compound `CCn1c(N=Nc2ccc(OC)cc2)nc2ccccc21` registered a CC50 in data set [1] of 13000 nM. Also, the EC50 in the data set on Plasmodium falciparum [2] is 97.5 nM; in the data set on Plasmodium falciparum [3] it was 115 nM.
In data set [1], `CCCCCCCCCC(=O)Oc1ccccc1-c1nc2cc(C)ccn2c1NC(C)(C)CC(C)(C)C` had a CC50 above 10000 nM. The EC50 in the data set on Plasmodium falciparum [2] stood at 1010 nM; with Plasmodium falciparum [3], 88.8 nM.
The corresponding values for `CC1(C)CC(=O)C2=C(C1)Nc1ccccc1N(C(=O)Cc1ccccc1)C2c1ccc([N+](=O)[O-])s1` (centres undefined) are above 10000 nM, above 1250 nM and 89.8 nM.
The like results for `CCOC(=O)C1=CN(C)C=C(C(=O)OCC)C1c1cc(Br)c(OCC)c(OC)c1` were, in that order, above 100000 nM, 913 nM and 897 nM.
The corresponding values for `Cc1nc2sccn2c1-c1csc(Nc2ccccn2)n1` are above 100000 nM, 381 nM and 889 nM.
